We go through one substance from US7341983B2, “Antimicrobial compositions including carboxylic acids and alkoxylated amines” (Ecolab Inc., priority 2003, dated 2008).

A short description of this series: Solution appearance with various types and amounts of alkoxylated amines. It is filed as physicochemical. The following applies: 2.4 wt-% octanoic acid, 21 wt-% phosphoric acid (75%), 8.0 wt-% citric acid, remainder water. The source says:
Test compositions were made with varying amounts and types of alkoxylated amines. These were made to include 2.4 wt-% octanoic acid, 21 wt-% phosphoric acid (75%), 8.0 wt-% citric acid, varying amounts of alkoxylated amine, with the remainder water.

As to “iso-(2-hydroxyethyl) isodecyloxypropylamine [Alkoxylated Amine 6]”, the Solution appearance result is “hazy yellow” (2.5 wt-% alkoxylated amine); “hazy yellow” (3 wt-% alkoxylated amine); “hazy” (3.5 wt-% alkoxylated amine); “milky yellow” (4 wt-% alkoxylated amine); “opaque-yellow” (4.5 wt-% alkoxylated amine); “separated” (5 wt-% alkoxylated amine).
